{
  "source": "paper PMC3915720",
  "about": "(Biochemistry, 2013)",
  "test_in_all_cases": "X-ray crystal structure, […] Å",
  "type_in_all_cases": "binding",
  "key": {"WlaRD (C8J_1081) [1]": {"target": "T1, WlaRD (C8J_1081) (Campylobacter jejuni, UniProt Q9ALS6)"}, "WlaRD (C8J_1081) [2]": {"target": "T1, WlaRD (C8J_1081)", "remark": "listed apart in the source"}, "WlaRD (C8J_1081) [3]": {"target": "T1, WlaRD (C8J_1081)", "conditions": "complex with N^5-formyl-THF"}},
  "data": [
    {"smiles": "Nc1nc2c(c(=O)[nH]1)N[C@@H](CNc1ccc(C(=O)N[C@@H](CCC(=O)O)C(=O)O)cc1)CN2", "note": "[THF]", "values": [
      {"measurement": "X-ray crystal structure, 1.9 Å (soak, turnover in crystal)", "setting": "WlaRD (C8J_1081) [1]; complex with dTDP-Qui3N (subunit A) or dTDP-Qui3NFo (subunit B)", "result": "In subunit A, THF and dTDP-Qui3N were observed"}
    ]},
    {"smiles": "Cc1cn([C@H]2C[C@H](O)[C@@H](COP(=O)(O)OP(=O)(O)O)O2)c(=O)[nH]c1=O", "note": "[dTDP]", "values": [
      {"measurement": "X-ray crystal structure, 1.4 Å (cocrystal)", "setting": "WlaRD (C8J_1081) [2]; complex with N^5-formyl-THF, also with N^10-formyl-THF", "result": "that of the enzyme complexed with N^5-formyl-THF and dTDP"}
    ]},
    {"smiles": "Cc1cn([C@H]2C[C@H](O)[C@@H](COP(=O)(O)OP(=O)(O)O[C@H]3O[C@H](C)[C@@H](O)[C@H](NC=O)[C@H]3O)O2)c(=O)[nH]c1=O", "note": "[dTDP-Qui3NFo]", "values": [
      {"measurement": "X-ray crystal structure, 1.9 Å (soak, turnover in crystal)", "setting": "WlaRD (C8J_1081) [1]; complex with THF, subunit B", "result": "In subunit B, however, the products THF and dTDP-Qui3NFo were present"}
    ]},
    {"smiles": "Cc1cn([C@H]2C[C@H](O)[C@@H](COP(=O)(O)OP(=O)(O)O[C@H]3O[C@H](C)[C@H](O)[C@H](NC=O)[C@H]3O)O2)c(=O)[nH]c1=O", "note": "[dTDP-Fuc3NFo]", "values": [
      {"measurement": "X-ray crystal structure, 1.45 Å (cocrystal)", "setting": "WlaRD (C8J_1081) [3]", "result": "to form such a complex in the presence of dTDP-Fuc3NFo as shown"}
    ]},
    {"smiles": "Nc1nc2c(c(=O)[nH]1)N(C=O)[C@@H](CNc1ccc(C(=O)N[C@@H](CCC(=O)O)C(=O)O)cc1)CN2", "note": "[N^5-formyl-THF]", "values": [
      {"measurement": "X-ray crystal structure, 1.4 Å (cocrystal)", "setting": "WlaRD (C8J_1081) [2]; complex with dTDP, not catalytically competent cofactor analog", "result": "that of the enzyme complexed with N^5-formyl-THF and dTDP"}
    ]}
  ]
}
